From patent US11306089B2, “Gamma-carboline compounds for the detection of Tau aggregates” (AC IMMUNE SA, priority 2018, dated 2022) come the findings set out here.

pIC50: −log10 of the molar value. Where only a bound is given, the exact number is not on record here.

Test [1] deals with Tau in human Alzheimer disease brain homogenate (Homo sapiens, UniProt P10636). Kind of test: Competition binding to Tau in AD brain homogenate (18F-labeled Tau binder). The arrangement: key to High affinity to Tau (IC50 in AD brain homogenate), grade: − poor; ∘ moderate; + good; ++ very good; +++ excellent. Here is the method:
Determination of Binding in AD and Healthy Control Brain Homogenates
20 μg of human Alzheimer disease brain homogenate was incubated with a dilution series of each test compound (1000 to 0.06 nM) in the presence of 800 Bq of ^18F-labeled Tau binder. The samples were shaken at 110 rpm for 45 min at 37° C. Samples were then filtered through GF/B 96 well filter plates and washed twice with 300 μL assay buffer (PBS containing 0.1% BSA and 2% DMSO). Thereafter, filter plates were sealed and a Fuji Film Imaging Plate (BAS-SR2025) was placed on top. The imaging plate was analyzed after overnight exposition using a Fuji Film BAS-5000. Non-specific signal was determined with samples containing ^18F-labeled Tau-reference binder in the presence of assay buffer without brain substrate and competitor. Specific binding was calculated by subtracting the non-specific signal from the measured samples signal. The unblocked ^18F-labeled Tau-binder signal was defined as total binding. IC50 values were calculated by Prism V7 (GraphPad) setting total binding to 100%.

The target in another test is T1, MAO-A (Mus musculus, UniProt Q64133).
T1 construct: 20 μg of mouse whole brain or human brain homogenate; from tissue; host or cells: mouse whole brain homogenate
T1 sequence (Q64133 1-526): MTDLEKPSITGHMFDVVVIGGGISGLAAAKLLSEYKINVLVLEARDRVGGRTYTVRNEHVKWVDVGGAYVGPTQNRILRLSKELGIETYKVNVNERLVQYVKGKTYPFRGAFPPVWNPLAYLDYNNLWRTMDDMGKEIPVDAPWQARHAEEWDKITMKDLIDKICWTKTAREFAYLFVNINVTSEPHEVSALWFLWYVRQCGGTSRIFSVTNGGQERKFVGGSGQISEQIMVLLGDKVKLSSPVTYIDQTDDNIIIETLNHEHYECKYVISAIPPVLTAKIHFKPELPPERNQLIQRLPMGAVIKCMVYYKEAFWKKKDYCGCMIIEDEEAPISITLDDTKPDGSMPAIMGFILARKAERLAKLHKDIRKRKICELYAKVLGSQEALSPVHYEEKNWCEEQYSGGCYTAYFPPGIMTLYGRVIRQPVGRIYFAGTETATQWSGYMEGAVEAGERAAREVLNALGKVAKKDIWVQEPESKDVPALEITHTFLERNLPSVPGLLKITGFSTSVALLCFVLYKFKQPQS
The experiment in a line: Binding affinity to MAO-A in mouse whole brain homogenate (3H-Harmine competition). Also noted: key to Low affinity to MAO A (IC50 in mouse brain homogenate), grade: − poor; ∘ moderate; + good; ++ very good; +++ excellent. Here is the method:
Determination of the Binding Affinity to MAO-A in HC Brain Homogenate
20 μg of mouse whole brain or human brain homogenate (without AD pathology, HC) was incubated with a dilution series of each test compound (1000 to 0.06 nM) in the presence of 700 Bq of ^3H-labeled MAO-A binder Harmine. The samples were shaken at 110 rpm for 60 min at 37° C. Samples were then filtered through GF/B 96 well filter plates and washed twice with 200 μL assay buffer (PBS containing 0.1% BSA and 2% DMSO). Thereafter, 40 μL Szintillation cocktail was added and the filter plates were sealed. The counts were then counted using a TopCount (Perkin Elmer). Non-specific signal was determined with samples containing ^3H-Harmine in the presence of assay buffer without brain substrate and competitor. Specific binding was calculated by subtracting the non-specific signal from the measured samples signal. The unblocked ^3H-Harmine signal was defined as total binding. IC50 values were calculated by Prism V7 (GraphPad) setting total binding to 100%.

The mark [2] stands for this setting: mouse brain homogenate, 3H-Harmine competition.

Chain of Tau in human Alzheimer disease brain homogenate (P10636 623-708 limits assumed): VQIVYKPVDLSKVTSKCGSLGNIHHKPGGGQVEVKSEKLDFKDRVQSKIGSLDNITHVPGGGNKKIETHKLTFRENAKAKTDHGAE

In the case of `Fc1cc(-c2nc3[nH]c4ccncc4c3s2)ccn1` [F-3], the “affinity towards tau (in words)” value in test [1] (competition assay, human AD brain homogenate) is “good affinity”. For the same molecule, the “MAO-A binding affinity (in words)” value at MAO-A (setting [2]) is recorded as “Low affinity”.

Consider `[18F]c1cc(-c2cc3[nH]c4ccncc4c3s2)ccn1` [^18F-3], for which the “High affinity to Tau (IC50 in AD brain homogenate), grade” value in test [1] (AD brain homogenate, non-radioactive fluorine-19 derivatives) is given as “+”. The pIC50 in test [1] (human AD brain homogenate, non-radioactive fluorine-19 derivatives) was 7.87; on MAO-A (setting [2]), under 6.00. In addition, the “Low affinity to MAO A (IC50 in mouse brain homogenate), grade” value at MAO-A (mouse brain homogenate) was “+++”. Also, on MAO-A (ratio to 18F-1), the “fold higher IC50 than compound 18F-1, MAO A in whole mouse brain homogenate” value is reported as over 100 fold.
